According to patent EP2298778A1, “IMIDAZOTHIAZOLE DERIVATIVE HAVING 4,7-DIAZASPIROÝ2.5¨OCTANE RING STRUCTURE” (Daiichi Sankyo Company, Limited, priority 2008, dated 2009):

Assay: Metabolic stability test (microsomal metabolism test)
Assay type: in vitro ADME
Settings: pH 7.4; human-derived liver microsomes, test compound remaining after addition of NADP+ and incubation at 37°C for 30 minutes; read-out: metabolic stability of T/C%
Description: (Test Example 3 Metabolic stability test) 100 µL of 100 mM phosphate buffer solution (pH 7.4) containing 3 µM test compound was added to 100 µL of reaction solution containing 100 mM phosphate buffer solution (pH 7.4), 30 mM glucose 6-phosphate, 10 mM MgCl2·6H2O, 3 units/mL glucose 6-phosphate 1-dehydrogenase, and 0.3 to 1.5 mgP/mL human liver microsomes and the mixture was incubated at 37°C for 20 minutes. Then, 70 µL of 100 mM phosphate buffer solution (pH 7.4) containing 3 mM NADP^+ was added and the mixture was incubated at 37°C for 30 minutes to conduct a microsomal metabolism test. The metabolic stability was calculated according to the following formula: T/C (%) = ((concentration of test compound after addition of NADP)^+and incubation for30minutes)/((concentration of test compound before addition of NADP)^+) × 100. [formula] […]

Row | remaining at 0.5 h [%] | SMILES
1 | ≥ 50 | CC(C)C1=C(C(=O)N2CCC[C@H]2C(=O)N2CC3(CC3)NC[C@@H]2C)SC2=N[C@@](C)(c3ccc(Cl)nc3)[C@@H](c3ccc(Cl)c(F)c3)N21 [Example 57, (6S)-7-(1-{[(5R,6S)-5-(4-chloro-3-fluorophenyl)-6-(6-chloropyridin-3-yl)-3-isopropyl-6-methyl-5,6-dihydroimidazo[2,1-b][1,3]thiazol-2-yl]carbonyl}-L-prolyl)-6-methyl-4,7-diazaspiro[2.5]octane]
2 | ≥ 50 | CC(C)C1=C(C(=O)N2[C@H](C)CC[C@H]2C(=O)N2C[C@H](C)NC3(CC3)C2)SC2=N[C@@](C)(c3ccc(Cl)nc3)[C@@H](c3ccc(Cl)c(F)c3)N21 [Example 19, (5S)-7-[(5R)-1-([(5R,6S)-5-(4-chloro-3-fluorophenyl)-6-(6-chloropyridin-3-yl)-3-isopropyl-6-methyl-5,6-dihydroimidazo[2,1-b][1,3]thiazol-2-yl]carbonyl}-5-methyl-L-prolyl]-5-methyl-4,7-diazaspiro[2.5]octane]
3 | ≥ 50 | CC[C@@H]1CC[C@@H](C(=O)N2CC3(CC3)NC[C@@H]2C)N1C(=O)C1=C(C(C)C)N2C(=N[C@@](C)(c3ccc(Cl)nc3)[C@H]2c2ccc(Cl)c(F)c2)S1 [Example 56, (6S)-7-[(5R)-1-{[(5R,6S)-5-(4-chloro-3-fluorophenyl)-6-(6-chloropyridin-3-yl)-3-isopropyl-6-methyl-5,6-dihydroimidazo[2,1-b][1,3]thiazol-2-yl]carbonyl}-5-ethyl-L-prolyl]-6-methyl-4,7-diazaspiro[2.5]octane]
4 | ≥ 50 | CC(C)C1=C(C(=O)N2[C@H](C)CC[C@H]2C(=O)N2CCN(CCO)C3(CC3)C2)SC2=N[C@@](C)(c3ccc(Cl)nc3)[C@@H](c3ccc(Cl)cc3)N21 [Example 10, 2-{7-[(5R)-1-{[(5R,6S)-5-(4-chlorophenyl)-6-(6-chloropyridin-3-yl)-3-isopropyl-6-methyl-5,6-dihydroimidazo[2,1-b][1,3]thiazol-2-yl]carbonyl}-5-methyl-L-prolyl]-4,7-diazaspiro[2.5]oct-4-yl}ethanol]
5 | ≥ 50 | CC(C)C1=C(C(=O)N2[C@H](C)CC[C@H]2C(=O)N2CCNC3(CC3)C2)SC2=N[C@@](C)(c3ccc(C#N)cc3)[C@@H](c3ccc(Cl)cc3)N21 [Example 28, 4-[(5R,6S)-5-(4-chlorophenyl)-2-{[(2S,5R)-2-(4,7-diazaspiro[2.5]oct-7-ylcarbonyl)-5-methylpyrrolidin-1-yl]carbonyl}-3-isopropyl-6-methyl-5,6-dihydroimidazo[2,1-b][1,3]thiazol-6-yl]benzonitrile]
6 | ≥ 50 | CC[C@@H]1CC[C@@H](C(=O)N2CCN(C)C3(CC3)C2)N1C(=O)C1=C(C(C)C)N2C(=N[C@@](C)(c3ccc(Cl)nc3)[C@H]2c2ccc(Cl)c(F)c2)S1 [Example 33, 7-[(5R)-1-{[(5R,6S)-5-(4-chloro-3-fluorophenyl)-6-(6-chloropyridin-3-yl)-3-isopropyl-6-methyl-5,6-dihydroimidazo[2,1-b][1,3]thiazol-2-yl]carbonyl}-5-ethyl-L-prolyl]-4-methyl-4,7-diazaspiro[2.5]octane]
7 | ≥ 50 | CC(=O)N1CCN(C(=O)[C@@H]2CCC(=O)N2C(=O)C2=C(C(C)C)N3C(=N[C@@](C)(c4ccc(Cl)nc4)[C@H]3c3ccc(Cl)c(F)c3)S2)CC12CC2 [Example 45, (5S)-5-[(4-acetyl-4,7-diazaspiro[2.5]oct-7-yl)carbonyl]-1-{[(5R,6S)-5-(4-chloro-3-fluorophenyl)-6-(6-chloropyridin-3-yl)-3-isopropyl-6-methyl-5,6-dihydroimidazo[2,1-b][1,3]thiazol-2-yl]carbonyl}pyrrolidin-2-one]
8 | ≥ 50 | CC(C)C1=C(C(=O)N2[C@H](C)CC[C@H]2C(=O)N2CC3(CC3)NC[C@H]2C)SC2=N[C@@](C)(c3ccc(Cl)nc3)[C@@H](c3ccc(Cl)c(F)c3)N21 [Example 23, (6R)-7-[(5R)-1-{ [(5R,6S)-5-(4-chloro-3-fluorophenyl)-6-(6-chloropyridin-3-yl)-3-isopropyl-6-methyl-5,6-dihydroimidazo[2,1-b][1,3]thiazol-2-yl]carbonyl}-5-methyl-L-prolyl]-6-methyl-4,7-diazaspiro[2.5]octane]
9 | ≥ 50 | CC(C)C1=C(C(=O)N2[C@H](C)CC[C@H]2C(=O)N2CCN(C)C3(CC3)C2)SC2=N[C@@](C)(c3ccc(Cl)nc3)[C@@H](c3ccc(Cl)cc3)N21 [Example 9, 7-[(5R)-1-{[(5R,6S)-5-(4-chlorophenyl)-6-(6-chloropyridin-3-yl)-3-isopropyl-6-methyl-5,6-dihydroimidazo[2,1-b][1,3]thiazol-2-yl]carbonyl}-5-methyl-L-prolyl]-4-methyl-4,7-diazaspiro[2.5]octane]
10 | ≥ 50 | CC(C)C1=C(C(=O)N2[C@H](CF)CC[C@H]2C(=O)N2CCN(C)C3(CC3)C2)SC2=N[C@@](C)(c3ccc(Cl)cc3)[C@@H](c3ccc(Cl)cc3)N21 [Example 39, 7-[(5S)-1-{[(5R,6S)-5,6-bis(4-chlorophenyl)-3-isopropyl-6-methyl-5,6-dihydroimidazo[2,1-b][1,3]thiazol-2-yl]carbonyl}-5-(fluoromethyl)-L-prolyl]-4-methyl-4,7-diazaspiro[2.5]octane]
11 | ≥ 50 | CC(C)C1=C(C(=O)N2[C@H](C)CC[C@H]2C(=O)N2CCN(C)C3(CC3)C2)SC2=N[C@@](C)(c3ccc(Cl)nc3)[C@@H](c3ccc(Cl)c(F)c3)N21 [Example 12, 7-[(5R)-1-{[(5R,6S)-5-(4-chloro-3-fluorophenyl)-6-(6-chloropyridin-3-yl)-3-isopropyl-6-methyl-5,6-dihydroimidazo[2,1-b][1,3]thiazol-2-yl]carbonyl}-5-methyl-L-prolyl]-4-methyl-4,7-diazaspiro[2.5]octane]
12 | ≥ 50 | CC(C)C1=C(C(=O)N2[C@H](C)CC[C@H]2C(=O)N2C[C@@H](C)NC3(CC3)C2)SC2=N[C@@](C)(c3ccc(Cl)cc3)[C@@H](c3ccc(Cl)cc3)N21 [Example 16, (5R)-7-[(5R)-1-{[(5R,6S)-5,6-bis(4-chlorophenyl)-3-isopropyl-6-methyl-5,6-dihydroimidazo[2,1-b][1,3]thiazol-2-yl]carbonyl}-5-methyl-L-prolyl]-5-methyl-4,7-diazaspiro[2.5]octane]
13 | ≥ 50 | CC(C)C1=C(C(=O)N2[C@H](C)CC[C@H]2C(=O)N2CCNC3(CC3)C2)SC2=N[C@@](C)(c3ccc(Cl)c(N)c3)[C@@H](c3ccc(Cl)c(F)c3)N21 [Example 27, 2-chloro-5-[(5R,6S)-5-(4-chloro-3-fluorophenyl)-2-{[(2S,5R)-2-(4,7-diazaspiro[2.5]oct-7-ylcarbonyl)-5-methylpyrrolidin-1-yl]carbonyl}-3-isopropyl-6-methyl-5,6-dihydroimidazo[2,1-b][1,3]thiazol-6-yl]aniline]
14 | ≥ 50 | CC(C)C1=C(C(=O)N2[C@H](C)CC[C@H]2C(=O)N2C[C@H](C)N(C)C3(CC3)C2)SC2=N[C@@](C)(c3ccc(Cl)nc3)[C@@H](c3ccc(Cl)c(F)c3)N21 [Example 20, (5S)-7-[(5R)-1-{[(5R,6S)-5-(4-chloro-3-fluorophenyl)-6-(6-chloropyridin-3-yl)-3-isopropyl-6-methyl-5,6-dihydroimidazo[2,1-b][1,3]thiazol-2-yl]carbonyl}-5-methyl-L-prolyl]-4,5-dimethyl-4,7-diazaspiro[2.5]octane]
15 | ≥ 50 | CO[C@@H]1C[C@@H](C(=O)N2CC3(CC3)NC[C@@H]2C)N(C(=O)C2=C(C(C)C)N3C(=N[C@@](C)(c4ccc(Cl)nc4)[C@H]3c3ccc(Cl)c(F)c3)S2)C1 [Example 63, (6S)-7-[(4R)-1-{[(5R,6S)-5-(4-chloro-3-fluorophenyl)-6-(6-chloropyridin-3-yl)-3-isopropyl-6-methyl-5,6-dihydroimidazo[2,1-b][1,3]thiazol-2-yl]carbonyl}-4-methoxy-L-prolyl]-6-methyl-4,7-diazaspiro[2.5]octane]
16 | ≥ 50 | CC(C)C1=C(C(=O)N2[C@H](C)CC[C@H]2C(=O)N2CCN(CCO)C3(CC3)C2)SC2=N[C@@](C)(c3ccc(Cl)nc3)[C@@H](c3ccc(Cl)c(F)c3)N21 [Example 13]
17 | ≥ 50 | CC(C)C1=C(C(=O)N2[C@H](C)CC[C@H]2C(=O)N2CCNC3(CC3)C2)SC2=N[C@@](C)(c3ccc(Cl)cc3)[C@@H](c3ccc(Cl)c(F)c3)N21 [Example 5, 7-[(5R)-1-{[(5R,6S)-5-(4-chloro-3-fluorophenyl)-6-(4-chlorophenyl)-3-isopropyl-6-methyl-5,6-dihydroimidazo[2,1-b][1,3]thiazol-2-yl]carbonyl}-5-methyl-L-prolyl]-4,7-diazaspiro[2.5]octane]
18 | ≥ 50 | CC[C@H]1CNC2(CC2)CN1C(=O)[C@@H]1CCCN1C(=O)C1=C(C(C)C)N2C(=N[C@@](C)(c3ccc(Cl)nc3)[C@H]2c2ccc(Cl)c(F)c2)S1 [Example 61, (6S)-7-(1-{[(5R,6S)-5-(4-chloro-3-fluorophenyl)-6-(6-chloropyridin-3-yl)-3-isopropyl-6-methyl-5,6-dihydroimidazo[2,1-b][1,3]thiazol-2-yl]carbonyl}-L-prolyl)-6-ethyl-4,7-diazaspiro[2.5]octane]
19 | ≥ 50 | CC(C)C1=C(C(=O)N2[C@H](CF)CC[C@H]2C(=O)N2CCN(C)C3(CC3)C2)SC2=N[C@@](C)(c3ccc(Cl)nc3)[C@@H](c3ccc(Cl)c(F)c3)N21 [Example 41, 7-[(5S)-1-{[(5R,6S)-5-(4-chloro-3-fluorophenyl)-6-(6-chloropyridin-3-yl)-3-isopropyl-6-methyl-5,6-dihydroimidazo[2,1-b][1,3]thiazol-2-yl]carbonyl}-5-(fluoromethyl)-L-prolyl]-4-methyl-4,7-diazaspiro[2.5]octane]
